Results on one compound are retold here after US12024506B2, “Compounds” (Oxford University Innovation Limited, priority 2018, dated 2024).

This test deals with HT1080 cells. Briefly: Cell viability assay 2 (CellTiterGlo), HT1080 cells. Format: cell-based. As to conditions: Homo sapiens, HT-1080, cell line printed as HCT1080, 48 or 72 h. As for the experimental part:
Cancer cell lines were in seeded in ViewPlates-96 microplates (PerkinElmer). HT1080 cells at 7500 cells per well and cultured in DMEM, high glucose, GlutaMAX media containing 10% FBS at 37° C. in 5% CO2 atmosphere. Cells were cultured overnight and the compounds (dissolved in DMSO and diluted to 0.2% DMSO) were added to the cells at concentrations ranging from 0 to 20 μM. The cells were incubated under standard culture conditions for either 24, 48 or 72 h. Cell viability was as quantitated using the CellTiterGlo Luminescent Cell Viability Assay (Promega) according to the manufacturer's instructions to measure ATP generated by metabolically active cells. Luminescent signals were measured using an Envision 2103 Multilabel Microplate Reader (PerkinElmer). The luminescence signals obtained from the compound-treated cells were normalized against the signal for DMSO-only treated cells.

The IC50 is the point on the concentration scale where inhibition reaches its midpoint. High values mean weaker potency in that assay, low ones greater potency in that assay. `COc1nc(-c2cccc3c2OCCO3)ccc1Nc1ccc(CN(C)C)cc1` [compound 56, [6-(2,3-Dihydro-benzo[1,4]dioxin-5-yl)-2-methoxy-pyridin-3-yl]-(4-dimethylaminomethyl-phenyl)-amine] registered a half-inhibitory concentration (IC50) of 10 µM.
